Results as given in US12319655B2, “RAF kinase inhibitors and methods of use thereof” (Deciphera Pharmaceuticals, LLC, priority 2021, dated 2025).

Assays:
[1] = target: B-Raf kinase (SEQ. ID NO: 2) (Homo sapiens (Human), UniProt P15056); experiment: Biochemical Assay for B-Raf (1); settings: Table J, assay version (1); read-out: BRAF (1) IC50
Procedure: Biochemical Assay for B-Raf (1)
(§1) Activity of B-Raf kinase (SEQ. ID NO: 2) was determined spectroscopically using a coupled pyruvate kinase/lactate dehydrogenase assay that continuously monitors the ATP hydrolysis-dependent oxidation of NADH (e.g., Schindler et al., Science, 2000, 289, 1938-1942). Assays were conducted in 384-well plates (100 μL final volume) using 0.13 nM B-Raf (Sigma), 1.5 units pyruvate kinase, 2.1 units lactate dehydrogenase, 1 mM phosphoenol pyruvate, 0.28 mM NADH, 30.1 nM MEK (SignalChem), and 1 mM ATP in assay buffer (100 mM Tris, Ph 7.5, 15 mM MgCl2, 0.5 mM DTT, 0.1% octyl-glucoside, 0.002% (w/v) BSA, and 0.002% Triton X-100). Inhibition of B-Raf was measured by adding serial diluted test compound (final assay concentration of 1% DMSO). A decrease in absorption at 340 nm was monitored continuously for 6 h at 30° C. on a multi-mode microplate reader (BioTek). The reaction rate was calculated using the 4 to 5 h time frame. The reaction rate at each concentration of compound was converted to percent inhibition using controls (i.e., reaction with no test compound and reaction with a known inhibitor) and IC50 values were calculated by fitting a four-parameter sigmoidal curve to the data using Prism (GraphPad software).

[2] = target: A-Raf kinase (SEQ. ID No: 1) (Homo sapiens (Human), UniProt P10398, Y301D/Y302D); experiment: Biochemical Assay for A-Raf (1); settings: Table J, assay version (1); read-out: ARAF (1) IC50
Sequence of A-Raf kinase (SEQ. ID No: 1) (P10398 other isoform, or with tags, fused parts or gaps Y301D (already in the parent)/Y302D (already in the parent)): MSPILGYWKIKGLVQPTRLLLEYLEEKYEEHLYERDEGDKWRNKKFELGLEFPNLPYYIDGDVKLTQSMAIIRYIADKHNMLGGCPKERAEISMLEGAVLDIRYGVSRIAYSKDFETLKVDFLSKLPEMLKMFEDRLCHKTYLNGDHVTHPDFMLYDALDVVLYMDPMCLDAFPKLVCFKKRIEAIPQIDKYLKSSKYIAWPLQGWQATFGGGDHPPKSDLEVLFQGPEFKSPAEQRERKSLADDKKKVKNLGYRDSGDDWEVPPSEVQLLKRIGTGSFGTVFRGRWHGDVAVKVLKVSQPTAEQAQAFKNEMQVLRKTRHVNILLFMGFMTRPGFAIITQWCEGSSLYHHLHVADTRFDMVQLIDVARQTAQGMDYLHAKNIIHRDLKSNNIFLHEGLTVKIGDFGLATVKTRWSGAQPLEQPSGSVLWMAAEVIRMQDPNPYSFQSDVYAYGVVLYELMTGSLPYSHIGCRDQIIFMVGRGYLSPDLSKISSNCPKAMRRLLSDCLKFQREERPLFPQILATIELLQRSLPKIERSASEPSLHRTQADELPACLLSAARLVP
Procedure: Biochemical Assay for A-Raf (1)
as §1, with “A-Raf” for “B-Raf”, “No: 1)” for “NO: 2)”, “5.55” for “0.13”, “pH” for “Ph”

A375 cells = experiment: A375 Cell Proliferation Assay (1); assay type: cell-based; settings: Homo sapiens, A-375
Procedure: A375 Cell Proliferation Assay (1)
A375 cells (catalog (#CRL-1619) are obtained from the American Type Culture Collect (ATTC, Manassas, VA). Briefly, cells were grown in DMEM High Glucose supplemented with 10% characterized fetal bovine serum (Invitrogen, Carlsbad, CA) and 1% Penicillin/Streptomycin/L-Glutamine at 37° C., 5% CO2, and 95% humidity. Cells are expanded until reaching 70-95% confluency at which point they are sub-cultured or harvested for assay use. A serial dilution of test compound is dispensed into a 96-well black clear bottom plate in triplicate. Two thousand five hundred cells are added per well in 200 μL complete growth medium in the 96-well plate. Plates are incubated for 67-72 h at 37° C., 5% CO2, and 95% humidity. At the end of the incubation, 40 μL of a 440 μM solution of resazurin (Sigma, St. Louis, MO) in PBS is added to each well of the plate and plates are incubated for an additional 5-6 h at 37° C., 5% CO2, and 95% humidity. Plates are read on a Synergy2 or equivalent reader (Biotek, Winooski VT) using an excitation of 540 nm and an emission of 600 nm. Data is analyzed using Prism software (GraphPad, San Diego, CA) to calculate IC50 values.

[3] = target: C-Raf kinase (SEQ. ID NO: 3) (Homo sapiens (Human), UniProt P04049, Y340D/Y341D); experiment: Biochemical Assay for C-Raf (1); settings: Table J, assay version (1); read-out: CRAF (1) IC50
Sequence of C-Raf kinase (SEQ. ID NO: 3) (P04049 307-648 Y340D/Y341D): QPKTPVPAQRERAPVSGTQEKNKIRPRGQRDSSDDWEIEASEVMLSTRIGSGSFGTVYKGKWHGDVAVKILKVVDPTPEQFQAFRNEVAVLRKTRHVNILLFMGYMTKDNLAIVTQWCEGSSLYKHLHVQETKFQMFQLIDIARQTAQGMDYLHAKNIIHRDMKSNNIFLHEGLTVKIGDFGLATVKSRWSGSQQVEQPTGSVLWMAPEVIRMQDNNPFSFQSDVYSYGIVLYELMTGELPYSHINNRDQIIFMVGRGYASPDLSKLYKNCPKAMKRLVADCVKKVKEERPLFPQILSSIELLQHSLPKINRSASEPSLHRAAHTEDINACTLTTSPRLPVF
Procedure: Biochemical Assay for C-Raf (1)
as §1, with “of C-Raf” for “of B-Raf”, “NO: 3)” for “NO: 2)”, “using 0.43” for “using 0.13”, “nM C-Raf” for “nM B-Raf”

[4] = target: B-Raf (V600E) (SEQ. ID NO: 4) kinase (Homo sapiens (Human), UniProt P15056, V600E); experiment: Biochemical Assay for B-Raf (V600E) (1); settings: Table J, BRAF V600E, assay version (1); read-out: BRAF VE (1) IC50
Sequence of B-Raf (V600E) (SEQ. ID NO: 4) kinase (P15056 416-766 V600E): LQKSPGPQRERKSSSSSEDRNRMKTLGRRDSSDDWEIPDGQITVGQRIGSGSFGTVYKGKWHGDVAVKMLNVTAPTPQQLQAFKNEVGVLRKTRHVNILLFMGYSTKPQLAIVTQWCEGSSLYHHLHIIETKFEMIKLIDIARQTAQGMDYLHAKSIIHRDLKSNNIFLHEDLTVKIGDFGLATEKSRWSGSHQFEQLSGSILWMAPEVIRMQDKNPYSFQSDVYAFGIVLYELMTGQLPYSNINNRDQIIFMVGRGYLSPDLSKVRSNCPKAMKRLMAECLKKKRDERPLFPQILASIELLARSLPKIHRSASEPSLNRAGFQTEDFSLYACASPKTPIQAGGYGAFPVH
Procedure: Biochemical Assay for B-Raf (V600E) (1)
Activity of B-Raf (V600E) (SEQ. ID NO: 4) kinase was determined spectroscopically using a coupled pyruvate kinase/lactate dehydrogenase assay that continuously monitors the ATP hydrolysis-dependent oxidation of NADH (e.g., Schindler et al., Science, 2000, 289, 1938-1942). Assays were conducted in 384-well plates (100 μL final volume) using 0.03 nM B-Raf (SignalChem), 1.5 units pyruvate kinase, 2.1 units lactate dehydrogenase, 1 mM phosphoenol pyruvate, 0.28 mM NADH, 30.1 nM MEK (SignalChem), and 1 mM ATP in assay buffer (100 mM Tris, Ph 7.5, 15 mM MgCl2, 0.5 mM DTT, 0.1% octyl-glucoside, 0.002% (w/v) BSA, and 0.002% Triton X-100). Inhibition of B-Raf (V600E) was measured by adding serial diluted test compound (final assay concentration of 1% DMSO). A decrease in absorption at 340 nm was monitored continuously for 6 h at 30° C. on a multi-mode microplate reader (BioTek). The reaction rate was calculated using the 3 to 4 h time frame. The reaction rate at each concentration of compound was converted to percent inhibition using controls (i.e., reaction with no test compound and reaction with a known inhibitor) and IC50 values were calculated by fitting a four-parameter sigmoidal curve to the data using Prism (GraphPad software).

Sequence of B-Raf kinase (SEQ. ID NO: 2) (P15056 416-766): as the sequence (P15056 416-766 V600E) above, with E185V counted along it

Row | SMILES | IC50 [1] [nM] | IC50 [2] [nM] | IC50 (A375 cells) [nM] | IC50 [3] [nM] | IC50 [4] [nM]
1 | Cc1ccc(NC(=O)c2ccnc(C(F)(F)F)c2)cc1-c1ccnc(-c2ccncc2)c1 [Example 44] | ≤ 100 | 1000 to 10000 | 1000 to 10000 | ≤ 100 | ≤ 100
2 | Cc1ccc(NC(=O)c2ccnc(C(F)(F)F)c2)cc1-c1ccnc(-c2cncnc2)c1 [Example 45] | ≤ 100 | 1000 to 10000 | 1000 to 10000 | ≤ 100 | ≤ 100
3 | CNC(=O)c1cc(-c2cc(-c3cc(NC(=O)c4ccnc(C(F)(F)F)c4)ccc3F)cc(C)n2)ccn1 [Example 66] | 1000 to 10000 | 1000 to 10000 | 1000 to 10000 | ≤ 100 | ≤ 100
4 | CNC(=O)c1cc(-c2cccc(-c3cc(NC(=O)c4cccc(C)c4)cnc3C)c2)ccn1 [Example 91] | ≤ 100 | 1000 to 10000 | 1000 to 10000 | ≤ 100 | ≤ 100
5 | Cc1ccc(NC(=O)c2ccnc(C(F)(F)F)c2)cc1-c1ccnc(-c2ccnc(NC(=O)CC#N)c2)n1 [Example 144] | ≤ 100 | 100 to 500 | 500 to 1000 | ≤ 100 | ≤ 100
6 | Cc1ccc(NC(=O)c2cccc(C(C)(C)C#N)c2)cc1-c1cncc(-c2ccnc(C(=O)NC3CC3)c2)n1 [Example 149] | 100 to 500 | 1000 to 10000 | 1000 to 10000 | 100 to 500 | ≤ 100
7 | COC(C)(C)c1cc(C(=O)Nc2ccc(C)c(-c3nccc(-c4ccnc(NC(=O)C5CC5)c4)n3)c2)ccn1 [Example 239] | ≤ 100 | 500 to 1000 | ≤ 100 | ≤ 100 | ≤ 100
8 | Cc1ncc(NC(=O)c2ccnc(C3(C#N)CC3)c2)cc1-c1nccc(-c2ccnc(NC(=O)C3CC3)c2)n1 [Example 293] | ≤ 100 | 1000 to 10000 | 100 to 500 | ≤ 100 | ≤ 100
9 | CNC(=O)c1cc(-c2cnnc(-c3cc(NC(=O)c4cnn(C5CC5)c4)cnc3C)c2)ccn1 [Example 324] | 1000 to 10000 | 1000 to 10000 | 1000 to 10000 | 1000 to 10000 | 1000 to 10000

Second part, the molecule after the results:

Row | IC50 [1] [nM] | IC50 [2] [nM] | IC50 (A375 cells) [nM] | IC50 [3] [nM] | IC50 [4] [nM] | SMILES
10 | ≤ 100 | 1000 to 10000 | 500 to 1000 | ≤ 100 | ≤ 100 | Cc1ncc(NC(=O)c2ccnc(C(F)(F)F)c2)cc1-c1cccc(-c2ccnc(NC(=O)CN(C)C)c2)c1 [Example 95]
11 | 100 to 500 | 1000 to 10000 | 100 to 500 | 100 to 500 | ≤ 100 | CC(=O)Nc1cc(-c2cc(-c3cc(NC(=O)c4ccnc(C(C)(C)C#N)c4)c(F)cc3C)cn(C)c2=O)ccn1 [Example 116]
12 | 100 to 500 | 1000 to 10000 | 1000 to 10000 | 100 to 500 | ≤ 100 | CC(=O)Nc1cc(-c2cc(-c3cc(NC(=O)c4ccnc(C(F)(F)F)c4)c(F)cc3C)cc(=O)n2C)ccn1 [Example 155]
13 | ≤ 100 | 1000 to 10000 | 100 to 500 | ≤ 100 | ≤ 100 | CC(=O)Nc1cc(-c2nccc(-c3cc(NC(=O)c4ccnc(C(C)(C)C#N)c4)cnc3C)n2)ccn1 [Example 195]
14 | 100 to 500 | 1000 to 10000 | 100 to 500 | ≤ 100 | ≤ 100 | Cc1ccc(NC(=O)c2ccnc(C(C)(C)C#N)c2)cc1-c1ccnc(-c2ccnc(NC(=O)C3(C)CC3)c2)n1 [Example 248]
15 | ≤ 100 | 500 to 1000 | 1000 to 10000 | ≤ 100 | ≤ 100 | Cc1cc(F)c(NC(=O)c2ccnc(C(F)F)c2)cc1-c1cncc(-c2ccnc(NC(=O)C3CC3)c2)n1 [Example 275]
16 | 100 to 500 | 1000 to 10000 | 1000 to 10000 | 100 to 500 | ≤ 100 | Cc1ncc(NC(=O)c2ccnc(C(C)(C)C#N)c2)cc1-c1cccc(-c2ccnc(N)n2)c1 [Example 289]
